Results: ChEMBL document CHEMBL1139859, “Structures of pahayokolides A and B, cyclic peptides from a Lyngbya sp” (J Nat Prod, 2007)
pIC50: −log10 of the molar value. Starred links: 1 amine or outer side, 2 acyl side, 3 side chain; linkers in the order of their positions; H or OH if unused. Positions of bridges follow the written chain, without caps; N, C: chain ends. Non-standard residues stand in square brackets, D forms with d. Residues, ends and D or L forms follow the SMILES beside them. ξ: configuration not given here. X2 = CC(=O)N(C)[C@@H](CC(C)C)C(=O)O[C@@H](CC(O)C(O)CC(C)C)CC(N[*:2])C(O)C(=O)[*:1]; hPhe = N[C@@H](CCc1ccccc1)C(=O)O; X1 = C/C=C(/N[*:1])C(=O)[*:2]; Dhb = C/C=C(\N)C(=O)O; ξT = CC(O)C(N)C(=O)O

What was measured:
NCI-H460 = assay: Cytotoxicity against human H460 cells; type: cell-based
A498 = assay: Cytotoxicity against human A498 cells; type: cell-based
SK-OV-3 = assay: Cytotoxicity against human SKOV3 cells; type: cell-based
CCRF-CEM = assay: Cytotoxicity against human CEM cells; type: cell-based
SK-MEL-28 = assay: Cytotoxicity against human SK-MEL-28 cells; type: cell-based
U-251 = assay: Cytotoxicity against human U251 cells; type: functional, cell-based
[1] = Cytotoxicity against human SKBR3 cells; type: cell-based; conditions: SK-BR-3
HT-29 = assay: Cytotoxicity against human HT29 cells; type: cell-based

For `C/C=C1\NC(=O)[C@H](Cc2ccccc2)NC(=O)[C@@H]2CCCN2C(=O)CNC(=O)[C@H](CCC(N)=O)NC(=O)C(O)C(C[C@H](CC(O)C(O)CC(C)C)OC(=O)[C@H](CC(C)C)N(C)C(C)=O)NC(=O)[C@@H]2CCCN2C(=O)[C@H](CCc2ccccc2)NC(=O)C(C(C)O)NC(=O)/C(=C\C)NC(=O)[C@H](CO)NC1=O` (stereo partly drawn) [PAHAYOKOLIDES A] (QGPF[Dhb]S[X1][ξT][hPhe]P; linker N-C via X2), the pIC50 (NCI-H460) was 5.67, the pIC50 (A498) was 5.58 and the pIC50 (SK-OV-3) was 5.56. The pIC50 (CCRF-CEM) was 5.49, the pIC50 (SK-MEL-28) was 5.24 and the pIC50 (U-251) was 4.88. For the same compound, the pIC50 [1] was 4.78 and the pIC50 (HT-29) was 4.35.
